Entries after “also recorded” stand apart in the source; their conditions may differ. Like-named read-outs stand apart in the source and are kept apart here.
Columns and labels:
Kv1.5 [1] = biological target: T1, Kv1.5 (Homo sapiens, UniProt P22460); experiment: Kv1.5 inhibition, whole-cell patch-clamp, currents recorded from MEL-C88 cells; assay type: cell-based; conditions: for Selectivity IC50 (Kv1.5)/IC50 (Kv1.3): Table 1
Kv1.3 [2] = biological target: T2, Kv1.3 (Mus musculus, UniProt P16390); assay type: cell-based; conditions: for Effect on Kv1.3: concentration of 10 µM where stated; for IC50: IC50 Kv1.3, text
T2 sequence (P16390 whole entry): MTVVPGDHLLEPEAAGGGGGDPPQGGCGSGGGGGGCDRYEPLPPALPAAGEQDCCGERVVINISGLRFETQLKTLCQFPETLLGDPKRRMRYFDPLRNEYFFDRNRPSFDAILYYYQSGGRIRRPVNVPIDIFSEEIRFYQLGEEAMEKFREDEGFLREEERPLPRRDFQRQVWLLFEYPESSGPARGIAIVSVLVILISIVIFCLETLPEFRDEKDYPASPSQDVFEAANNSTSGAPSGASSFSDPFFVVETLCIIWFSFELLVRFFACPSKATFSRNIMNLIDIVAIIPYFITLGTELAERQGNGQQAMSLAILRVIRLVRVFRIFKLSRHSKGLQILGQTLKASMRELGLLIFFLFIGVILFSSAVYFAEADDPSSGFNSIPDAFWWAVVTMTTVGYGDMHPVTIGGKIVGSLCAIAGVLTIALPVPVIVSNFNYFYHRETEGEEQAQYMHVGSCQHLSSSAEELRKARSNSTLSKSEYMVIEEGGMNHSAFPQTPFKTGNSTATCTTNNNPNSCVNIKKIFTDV

Kv1.3 [3] = biological target: T2, Kv1.3; conditions: read-out: IC50 Kv1.3; cited from earlier work
Kv1.5 [4] = biological target: T1, Kv1.5; conditions: Table 1, cited from earlier work; for IC50: read-out: IC50 value Kv1.5
[5] = HPLC studies on stability in DMSO stock and Ringer solution; assay type: physicochemical; conditions: data not shown
[6] = cited from earlier work
[7] = tested on: oxazolone-induced allergic contact dermatitis; conditions: rat models; cited from earlier work
[8] = administration for 28 days or 6 months, rats or rhesus macaques; cited from earlier work
[9] = cited from earlier work; remark: listed apart in the source
type-1 diabetes = conditions: rat models; cited from earlier work

T1 sequence (P22460 whole entry): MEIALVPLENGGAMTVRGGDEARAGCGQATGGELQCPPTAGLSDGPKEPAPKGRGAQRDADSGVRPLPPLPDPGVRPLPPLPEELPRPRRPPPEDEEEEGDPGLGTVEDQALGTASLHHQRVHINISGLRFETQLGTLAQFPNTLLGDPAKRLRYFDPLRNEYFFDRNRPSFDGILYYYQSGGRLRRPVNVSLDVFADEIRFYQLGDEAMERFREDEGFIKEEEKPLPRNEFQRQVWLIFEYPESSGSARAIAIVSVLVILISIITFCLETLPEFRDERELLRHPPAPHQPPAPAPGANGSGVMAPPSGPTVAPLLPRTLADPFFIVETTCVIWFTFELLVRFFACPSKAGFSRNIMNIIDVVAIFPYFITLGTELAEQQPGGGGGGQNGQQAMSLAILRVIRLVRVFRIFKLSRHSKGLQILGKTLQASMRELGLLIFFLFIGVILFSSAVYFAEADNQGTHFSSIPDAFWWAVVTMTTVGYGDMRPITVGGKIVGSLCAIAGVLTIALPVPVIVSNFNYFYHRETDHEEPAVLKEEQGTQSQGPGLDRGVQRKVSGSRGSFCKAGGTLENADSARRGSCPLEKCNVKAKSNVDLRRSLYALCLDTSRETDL

Question: What does the source list for `COc1cccc2c(=O)c3ccccc3n(CCCCOc3ccccc3)c12` [Compound 28, 9,10-Dihydro-4-methoxy-N-(4-phenoxybutyl)acridin-9-one]?
Answer: IC50 (Kv1.5 [1]): 0.45 µM; Selectivity IC50 (Kv1.5)/IC50 (Kv1.3) (Kv1.5 [1]): 2.73

Question: For `O=c1ccc2c(OCCCCOc3ccccc3)cccc2o1` [Compound 42, 5-(4-Phenoxybutoxy)-2H-[1]benzopyran-2-one], which IC50 (Kv1.5 [1]) is on record?
Answer: 0.52 µM

Question: What about the “Selectivity IC50 (Kv1.5)/IC50 (Kv1.3)” value (Kv1.5 [1]) of the same compound?
Answer: 3.47

Question: For `COc1ccc2c(OCCCCOc3ccccc3)c3ccoc3nc2c1OC` [Compound 35, 7,8-Dimethoxy-4-(4-phenoxybutoxy)furo[2,3-b]quinoline], which “Kinetics of block (mode of Kv1.3 block)” value (Kv1.3 [2]) is on record?
Answer: block the C-type inactivated state; also recorded: use-dependence

Question: With `COc1cc2nc3occc3c(OC)c2cc1OC` [kokusagenine, 4,6,7-trimethoxyfuro[2,3-b]quinoline] as the compound, how does the IC50 (Kv1.3 [3]) read?
Answer: 10 µM

Question: For `Cc1cc(=O)c2c(OCCCCOc3ccccc3)c3ccoc3cc2o1` [Compound 36, 7-Methyl-4-(4-phenoxybutoxy)-5H-furo[3,2-g][1]benzopyran-5-one], which IC50 (Kv1.5 [1]) is on record?
Answer: 0.31 µM

Question: What about the “Selectivity IC50 (Kv1.5)/IC50 (Kv1.3)” value (Kv1.5 [1]) of the same compound?
Answer: 1.33

Question: What about the “Kinetics of block (mode of Kv1.3 block)” value (Kv1.3 [2]) of the same compound?
Answer: block the C-type inactivated state; also recorded: use-dependence

Question: With `COc1c2ccoc2cc2oc(=O)ccc12` [Compound 5-MOP, 5-methoxypsoralen] as the compound, how does the “Selectivity IC50 (Kv1.5)/IC50 (Kv1.3)” value (Kv1.5 [4]) read?
Answer: 1.75

Question: And the IC50 (Kv1.5 [4])?
Answer: 177 µM

Question: With `Cc1cc(=O)c2c(OCCCCOc3ccccc3)c3c(cc2o1)OCO3` [Compound 56, 2-Methyl-6,7-methylendioxy-5-(4-phenoxybutoxy)-4H-[1]benzopyran-4-one] as the compound, how does the “Times more potent on Kv1.5 than on Kv1.3” value (Kv1.5 [1]) read?
Answer: roughly 3 times

Question: Which results are given for `c1ccc(OCCCCOc2ncnc3ccccc23)cc1` [Compound 19, 4-(4-Phenoxybutoxy)quinazoline]?
Answer: IC50 (Kv1.5 [1]): ~25 µM; Effect on Kv1.3 (Kv1.3 [2]): ineffective

Question: Which results are given for `S=c1ccc2c(OCCCCOc3ccccc3)c3ccoc3cc2o1` [Compound 73, 4-(4-Phenoxybutoxy)-7H-furo[3,2-g]chromene-7-thione]?
Answer: IC50 (Kv1.5 [1]): 0.38 µM; Times more potent on Kv1.5 than on Kv1.3 (Kv1.5 [1]): 22 times; Selectivity IC50 (Kv1.5)/IC50 (Kv1.3) (Kv1.5 [1]): 22; Stability in DMSO stock solutions (HPLC) ([5]; DMSO stock solutions): more than 12 months; Stability in Ringer solution (HPLC) ([5]; Ringer solution): at least 24 hours; Kinetics of block (mode of Kv1.3 block) (Kv1.3 [2]): block the C-type inactivated state; also recorded: use-dependence

Question: Which results are given for `COc1c2occc2c(OCCCCOc2ccccc2)c2c(=O)cc(C)oc12` [Compound 37, 9-Methoxy-7-methyl-4-(4-phenoxybutoxy)-5H-furo[3,2-g][1]benzopyran-5-one]?
Answer: IC50 (Kv1.5 [1]): 2.5 µM; Selectivity IC50 (Kv1.5)/IC50 (Kv1.3) (Kv1.5 [1]): 1.67

Question: What does the source list for `O=C1c2ccccc2C(=O)c2c(OCCCCOc3ccccc3)cccc21` [Compound 25, 1-(4-Phenoxybutoxy)anthraquinone]?
Answer: IC50 (Kv1.5 [1]): 10 µM; Selectivity IC50 (Kv1.5)/IC50 (Kv1.3) (Kv1.5 [1]): 1.43

Question: For `c1ccc(OCCCCOc2ccccc2)cc1` [Compound 15, 1,1'[1,4-Butanediyl(oxy)]bis-benzene], which IC50 (Kv1.3 [2]) is on record?
Answer: > 10 µM

Question: For `c1ccc(OCCCCOc2ccnc3ccccc23)cc1` [Compound 17, 4-(4-Phenoxybutoxy)quinoline], which IC50 (Kv1.5 [1]) is on record?
Answer: 3.5 µM

Question: What about the “Selectivity (IC50 for Kv1.5 divided by the IC50 for Kv1.3)” value (Kv1.5 [1]) of the same compound?
Answer: 0.34 fold

Question: What about the “Times more potent on Kv1.5 than on Kv1.3” value (Kv1.5 [1]) of the same compound?
Answer: roughly 3 times

Question: What about the “Selectivity IC50 (Kv1.5)/IC50 (Kv1.3)” value (Kv1.5 [1]) of the same compound?
Answer: < 0.35

Question: What about the “Effect on Kv1.3” value (Kv1.3 [2]) of the same compound?
Answer: ineffective

Question: With `COc1c2occc2c(OC)c2c(OCCCCOc3ccccc3)cc(=O)oc12` [Compound 23, 5,8-Dimethoxy-4-(4-phenoxybutoxy)psoralen] as the compound, how does the IC50 (Kv1.5 [1]) read?
Answer: 0.85 µM

Question: And the “Selectivity IC50 (Kv1.5)/IC50 (Kv1.3)” value (Kv1.5 [1])?
Answer: 1.89

Question: With `c1ccc(OCCCCOc2cc3ccccc3c3ccccc23)cc1` [Compound 26, 9-(4-Phenoxybutoxy)phenanthrene] as the compound, how does the IC50 (Kv1.3 [2]) read?
Answer: > 10 µM

Question: For `COc1cc2nc3occc3c(OCCCCOc3ccccc3)c2cc1OC` [Compound 34, 6,7-Dimethoxy-4-(4-phenoxybutoxy)furo[2,3-b]quinoline], which IC50 (Kv1.5 [1]) is on record?
Answer: 0.48 µM

Question: And the “Selectivity IC50 (Kv1.5)/IC50 (Kv1.3)” value (Kv1.5 [1])?
Answer: 3.2

Question: And the “Kinetics of block (mode of Kv1.3 block)” value (Kv1.3 [2])?
Answer: block the C-type inactivated state; also recorded: use-dependence

Question: For `O=c1ccc2c(OCCCCOc3ccccc3)c3ccoc3cc2o1` [PAP-1, 5-(4-phenoxybutoxy)psoralen], which IC50 (Kv1.5 [4]) is on record?
Answer: 0.045 µM

Question: What about the “in vitro or in vivo toxicity” value [6] of the same compound?
Answer: does not display any in vitro or in vivo toxicity

Question: What about the “Effect on oxazolone-induced allergic contact dermatitis” value [7] of the same compound?
Answer: effectively suppresses oxazolone-induced allergic contact dermatitis

Question: And the “Changes in liver enzymes or liver pathology” value [8]?
Answer: does not lead to any changes in liver enzymes or liver pathology

Question: What about the phototoxicity [9] of the same compound?
Answer: not phototoxic

Question: And the “Effect on onset and incidence of type-1 diabetes” value (type-1 diabetes)?
Answer: significantly delays the onset and reduces the incidence of type-1 diabetes

Question: What about the “Potency on Kv1.3 in comparison to 5-MOP” value (Kv1.3 [2]) of the same compound?
Answer: more than 1000 fold

Question: Which IC50 (Kv1.5 [1]) does the source give for `COc1c2ccoc2c(OCCCCOc2ccccc2)c2oc(=O)cc(C)c12` [Compound 63, 5-Methoxy-4-methyl-8-(4-phenoxybutoxy)psoralen] here?
Answer: 0.28 µM

Question: And the “Times more potent on Kv1.5 than on Kv1.3” value (Kv1.5 [1])?
Answer: roughly 3 times

Question: What about the “Selectivity IC50 (Kv1.5)/IC50 (Kv1.3)” value (Kv1.5 [1]) of the same compound?
Answer: 0.88

Question: And the “Kinetics of block (mode of Kv1.3 block)” value (Kv1.3 [2])?
Answer: open-channel blockers

Question: With `c1ccc(OCCCCOc2cccc3ccccc23)cc1` [Compound 16, 1-(4-Phenoxybutoxy)naphthalene] as the compound, how does the IC50 (Kv1.3 [2]) read?
Answer: > 10 µM

Question: For `O=c1cc(OCCCCOc2ccccc2)c2ccccc2o1` [Compound 21, 4-(4-Phenoxybutoxy)-2H-[1]benzopyran-2-one], which IC50 (Kv1.5 [1]) is on record?
Answer: 1.5 µM

Question: What about the “Selectivity IC50 (Kv1.5)/IC50 (Kv1.3)” value (Kv1.5 [1]) of the same compound?
Answer: 1.69

From publication PMC2662044 (European journal of medicinal chemistry, 2008)
